Type in all cases: cell-based
Assay [1] concerns SNU-423 cells. In words: MTS cell proliferation assay, SNU-423. Conditions: Homo sapiens, 120 hrs incubation. How it is done: (§1) Cell lines and culture conditions: Human colon cancer cells Caco-2, HT29 and HCT15, human pancreatic cancer cells BxPC3, CFPAC-1, and CAPAN-2, liver cancer cells SNU423 and kidney cells HEK293, were obtained from American Type Culture Collection (Rockville, USA). HeLa, DLD1, U937, THP-1, and NIH3T3 cells were obtained from ATCC. Huh7 cells were obtained from (Japanese Cancer Resources Bank). HeLa cells, Huh7, DLD1 and NIH-3T3 cells were cultured in DMEM (Dulbecco's modification of Eagle's Medium; Corning) supplemented with 10% Fetal Bovine Serum (FBS; Invitrogen) and 10% Fetal Calf Serum (FCS; Atlanta Biologicals) respectively. U937, BxPC3, HCT15, SNU423 and THP-1 cells were grown in RPMI-1640 (Roswell Park Memorial Institute; Corning) supplemented with 10% Fetal Bovine Serum (FBS; Invitrogen). CFPAC-1 cells were cultured in Iscove's Modified Dulbecco's Medium (ATCC) supplemented with 10% FBS. CAPAN-2 and HT29 cells were cultured in McCoy's 5a medium supplemented with 10% FBS. Caco2 and HEK293 cells were grown in Eagle's Minimum Essential Medium (ATCC) with final 20% FBS concentration. All cells were maintained at 37° C. in 5% CO2 at constant 70% humidity.
(§2) MTS cell proliferation assay: Cells were detached from the plates using trypsin (0.25% for 3 mins, ATCC) and counted using a hemocytometer and were plated at 3000-1500 cells per well, in a 96-well format. The cells were seeded in the inner wells of 96 well plates, and media was added to the outer wells (blank). For NIH-3T3, 1500 cells were seeded in the inner wells of 96-well plates, and after 20 hours cells were treated with compound or DMSO (vehicle control) at appropriate concentrations (DMSO at final concentration of 1%). For other adherent cells 3000 HeLa, BxPC3, CFPAC-1, CAPAN-2, HEK293, HCT15, HT29, CaCo2, DLD1, Huh7 or SNU423 cells were seeded in in each well approximately 20 hrs prior to the treatment. For U937 and THP-1 suspension cells, 2500 cells were added to the wells of a 96-well plate on the day of treatment. After a 72-hour (or 120 hrs for BxPC3, CAPAN-2, SNU423) incubation with compound or vehicle, cell growth was assessed via the Promega CellTiter 96® AQueous One Solution Cell Proliferation Assay, a colorimetric method to determine the number of viable cells. 20 μL of the CellTiter 96® AQueous One Solution Reagent was added directly into cultured wells and incubated for approximately one hour, after which the absorbance at 490 nm was read with a 96-well plate reader (Opys MR Microplate Reader). GI50 values were determined from plots of the percentage of compound-treated cell growth to vehicle cell growth vs. compound concentration (GraphPad Prism; non-linear regression, log inhibitor verse normalized response with variable slope).
(Tetrazolium dyes change colour on reduction, which living cells bring about.)

The subject of assay [2] is CaCo-2 cells. In words: MTS cell proliferation assay, CaCo-2. The conditions noted are these: Homo sapiens, 72-hour incubation. How it is done: (§3) Cell lines and culture conditions: Human colon cancer cells Caco-2, HT29 and HCT15, human pancreatic cancer cells BxPC3, CFPAC-1, and CAPAN-2, liver cancer cells SNU423 and kidney cells HEK293, were obtained from American Type Culture Collection (Rockville, USA). HeLa, DLD1, U937, THP-1, and NIH3T3 cells were obtained from ATCC. Huh7 cells were obtained from (Japanese Cancer Resources Bank). HeLa cells, Huh7, DLD1 and NIH-3T3 cells were cultured in DMEM (Dulbecco's modification of Eagle's Medium; Corning) supplemented with 10% Fetal Bovine Serum (FBS; Invitrogen) and 10% Fetal Calf Serum (FCS; Atlanta Biologicals) respectively. […]
(§4) MTS cell proliferation assay: Cells were detached from the plates using trypsin (0.25% for 3 mins, ATCC) and counted using a hemocytometer and were plated at 3000-1500 cells per well, in a 96-well format. […] After a 72-hour (or 120 hrs for BxPC3, CAPAN-2, SNU423) incubation with compound or vehicle, cell growth was assessed via the Promega CellTiter 96® AQueous One Solution Cell Proliferation Assay, a colorimetric method to determine the number of viable cells. 20 μL of the CellTiter 96® AQueous One Solution Reagent was added directly into cultured wells and incubated for approximately one hour, after which the absorbance at 490 nm was read with a 96-well plate reader (Opys MR Microplate Reader). […]

For assay [3], the system named is HCT-15 cells. In words: MTS cell proliferation assay, HCT-15. The conditions noted are these: Homo sapiens, 72-hour incubation. Here is the method:
as §3, §4

For assay [4], the system named is HT-29 cells. Description: MTS cell proliferation assay, HT-29. Conditions: Homo sapiens, 72-hour incubation. Here is the method:
as §3, §4

The test system of assay [5] is HuH7 cells. Description: MTS cell proliferation assay, HuH7. Conditions: Homo sapiens, Huh-7, 72-hour incubation. How it is done:
as §1, §2

Assay [6] deals with NIH 3T3 cells. Description: MTS cell proliferation assay, NIH 3T3. The conditions noted are these: Mus musculus, NIH3T3, 72-hour incubation. Here is the method: as §1, with “All cells were maintained at 37° C. in 5% CO2 at constant 70% humidity.” left out
(§5) MTS cell proliferation assay: Cells were detached from the plates using trypsin (0.25% for 3 mins, ATCC) and counted using a hemocytometer and were plated at 3000-1500 cells per well, in a 96-well format. […] After a 72-hour (or 120 hrs for BxPC3, CAPAN-2, SNU423) incubation with compound or vehicle, cell growth was assessed via the Promega CellTiter 96® AQueous One Solution Cell Proliferation Assay, a colorimetric method to determine the number of viable cells. 20 μL of the CellTiter 96® AQueous One Solution Reagent was added directly into cultured wells and incubated for approximately one hour, after which the absorbance at 490 nm was read with a 96-well plate reader (Opys MR Microplate Reader). GI50 values were determined from plots of the percentage of compound-treated cell growth to vehicle cell growth vs. compound concentration (GraphPad Prism; non-linear regression, log inhibitor verse normalized response with variable slope).

Assay [7] relates to HeLa cells. Description: MTS cell proliferation assay, HeLa. The conditions noted are these: Homo sapiens, 72-hour incubation. How it is done:
as §1, with “All cells were maintained at 37° C. in 5% CO2 at constant 70% humidity.” left out
as §5

The term GI50 denotes the concentration giving 50% growth inhibition. Lower therefore signals more potent growth inhibition.

`CCOc1cc(N(C)C)ccc1C1CC(=O)Nc2cc3c(cc21)OCCO3` (racemic) [FQI-37, 9-[4-(dimethylamino)-2-ethoxy-phenyl]-3,6,8,9-tetrahydro-2H-[1,4]dioxino[2,3-g]quinolin-7-one]: the concentration for 50% growth inhibition (GI50) turned out to be 141 nM in assay [1]; 141 nM in assay [2]; 18 nM in assay [3]; 398 nM in assay [4]; 70 nM in assay [5].

Turning to `CCOc1cc(N(C)C)ccc1[C@@H]1CC(=O)Nc2cc3c(cc21)OCCO3` [(R)-FQI-37], the concentration for 50% growth inhibition (GI50) in assay [1] amounted to 147 nM; in assay [5], 126 nM.

Take `CCOc1cc(N(C)C)ccc1[C@H]1CC(=O)Nc2cc3c(cc21)OCO3` [(S)-FQI-34]: the GI50 in assay [1] came out at 50 nM; in assay [6], 590 nM; in assay [5], 56 nM; in assay [7] it was 3800 nM.

Take `CCOc1cc(N(C)C)ccc1[C@@H]1CC(=O)Nc2cc3c(cc21)OCO3` [(R)-FQI-34]: the 50% growth inhibitory concentration (GI50) in assay [1] amounted to 251 nM; in assay [6] it was 5800 nM; in assay [5] it was 158 nM; in assay [7], 300 nM.

As to `CCOc1cc(N(C)C)ccc1[C@H]1CC(=O)Nc2cc3c(cc21)OCCO3` [(S)-FQI-37], the GI50 in assay [1] is 60 nM; in assay [5] it was 70 nM.

The record behind these values is US11420977B2, “Late SV40 (LSF) inhibitors” (Trustees of Boston University, priority 2018, dated 2022).
